Where two headings read alike, the source gives them in different places.
Experiments:
SNAP-GIPR T116R = conditions: HEK293A
GIPR variants (groups) [1] = assay: β-arrestin 2 recruitment (BRET);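 also: BRET readout of β-arrestin 2 recruitment in transiently transfected HEK293 cells expressing WT GIPR or a GIPR variant plus GPCR kinase 2, Rluc8 donor and citrine acceptor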
WT GIPR = conditions: cited from earlier work
SNAP-WT GIPR = conditions: HEK293A
GIPR variants (groups) [2] = system: GIPR variants (groups)
SNAP-GIPR A185V = conditions: HEK293A
SNAP-GIPR P195R = conditions: HEK293A
GIPR W90Lfs*17 [3] = assay: cAMP accumulation; assay type: cell-based, human; conditions: W90Lfs*; HEK293; GIP(1–42) 1 pM–100 nM, 30 min 37 °C; mean of n = 5
Protocol: HEK293 (CRL-1573, American Type Culture Collection) and β-arrestin 1/2 knockout cells, generated from HEK293A[48], were used for cAMP measurement, homologues competition binding and β-arrestin 2 recruitment. For the internalization assay, endosomal signalling and basal receptor localization experiments, HEK293A (R70507, Thermo Fisher) cells were used. Both cell lines were cultured at 5% CO2 at 37 °C in Roswell Park Memorial Institute GlutaMAX-I supplemented with 10% fetal bovine serum, 180 units ml^−1 penicillin, and 45 g ml^−1 streptomycin. For the cAMP and binding experiments, cells were transfected with the calcium phosphate precipitation method[49]. The polyethyleneimine (PEI) transfection method was used for the β-arrestin 2 recruitment assays[50], endosomal signalling and basal receptor localization assays, while the lipofectamine transfection method was used for the internalization assay.
cAMP production was measured with the DiscoverX Hithunter cAMP assay according to the manufacturer’s protocol (DiscoverX). […] On the day of the assay, the cells were washed twice with HEPES-buffered saline (HBS) and incubated with HBS and 1 mM 3-isobutyl-1-methylxanthine for 30 min at 37 °C. […] After a 3-h incubation on a shaking table in the dark, the cAMP accumulation was measured based on luminescence with a Perkin Elmer EnVision 2104 Multilabel Microplate Reader. […]

GIPR W90Lfs*17 [4] = conditions: GIPR W90Lfs* (ECD), mean, n = 5, duplicate
Protocol: HEK293 (CRL-1573, American Type Culture Collection) and β-arrestin 1/2 knockout cells, generated from HEK293A[48], were used for cAMP measurement, homologues competition binding and β-arrestin 2 recruitment. […] Both cell lines were cultured at 5% CO2 at 37 °C in Roswell Park Memorial Institute GlutaMAX-I supplemented with 10% fetal bovine serum, 180 units ml^−1 penicillin, and 45 g ml^−1 streptomycin. […] The polyethyleneimine (PEI) transfection method was used for the β-arrestin 2 recruitment assays[50], endosomal signalling and basal receptor localization assays, while the lipofectamine transfection method was used for the internalization assay.
Measurement of β-arrestin 2 recruitment was performed with a BRET assay. Two days before the assay, the HEK293 cells were transiently transfected with either WT GIPR or the GIPR variants together with the donor Rluc8-Arrestin-3-Sp1, the acceptor mem-linker-citrine-SH3 and the GPCR kinase 2 to facilitate β-arrestin 2 recruitment. On assay day, the cells were washed with PBS and resuspended in PBS supplemented with 5 mmol l^−1 glucose. Subsequently, 85 µl of the cell suspension was transferred to a white 96-well plate and 10 µl of 50 µM coelenterazine-h was added.

GIPR variants (groups) [5] = assay: cAMP accumulation; assay type: cell-based, human
SNAP-GIPR V99I = conditions: HEK293A
SNAP-GIPR Y73H = conditions: HEK293A
SNAP-GIPR A207V = conditions: HEK293A
GIPR variants (groups) [6] = system: GIPR variants (groups); remark: listed apart in the source
Protocol: This prompted us to further assess the role of β-arrestin for GIPR signalling by investigating the endosomal signalling in representative GIPR variants from each of the six in vitro-based groups.
At 48 h post-transfection, cells were washed with HBSS and subsequently maintained in 80 µl HBSS. […] Light emission at 515/20 nm (acceptor; rGFP) and 400/70 nm (donor; Rluc8) was measured using a Tecan Spark multimode microplate reader (Männedorf).

GIPR variants (groups) [7] = system: GIPR variants (groups); remark: listed apart in the source
Protocol: Binding experiments were performed simultaneously with the same transiently transfected HEK293 cells used for the cAMP experiments to enable the correlation of receptor expression with signalling between assays. In brief, 1 day before the assay, the transfected cells were seeded in a clear 96-well plate. […] On the assay day, the cells were washed twice with 4 °C binding buffer (50 mM HEPES buffer (pH 7.2), 1 mM CaCl2, 5 mM MgCl2 and 0.5% (wt/vol) bovine serum albumin) and incubated for 15 minutes at 4 °C. […] After incubation, the cells were washed in ice-cold binding buffer and lysed with 200 mmol l^−1 NaOH with 1% sodium dodecyl sulphate for 30 min. The gamma radiation was measured with a 2470 Wizard2 Automatic Gamma Counter.
To obtain Emax, EC50, Bmax, Kd and IC50 values, we analysed the data with the non-linear regression curve fitting program GraphPad Prism Software 9 (GraphPad).
The Bmax was calculated according to the following equation[51]: Bmax=B0×IC50/[L] in which B0 represents the total specific binding and [L] is the ligand concentration. The equilibrium dissociation constant (Kd) was obtained with the equation[51]: Kd=IC50−[L]

SNAP-GIPR A150T = conditions: HEK293A
SNAP-GIPR M67R = conditions: HEK293A
[8] = system: β cell-specific β-arrestin 2 KO female mice; conditions: cited from earlier work
From the text: In contrast, GIP-potentiated insulin secretion relied on β-a ...

male Arrb2 KO mice = assay: IPGTT in male Arrb2 KO mice; assay type: in vivo, mouse; design: Mean difference in glucose (Arrb2-/- + Veh. vs. Arrb2-/- + GLP-1): unit not given here; conditions: for Mean difference in glucose (Arrb2-/- + Veh. vs. Arrb2-/- + GLP-1): injected 15 min before glucose, n = 13 veh., 10
From the text: (§1) We therefore explored the functional relationship between β-arrestin recruitment and GIP-stimulated glucose regulation by conducting pharmacological interventions in a murine genetic global germline β-arrestin 2 (Arrb2) knockout (KO) model.
(§2) Studies were approved by and performed according to the guidelines of the Institutional Animal Care and Use Committee of Duke University. Male Arrb2 KO mice (Arrb2^−/−) ~12–15 weeks of age were generously provided by Drs Howard Rockman and Robert Lefkowitz at Duke University[70]. The mice were kept in standard housing conditions with a temperature of 20–26 °C and a 12-h dark/light cycle to ensure the physiological and psychological wellbeing of the mice. Mice were fed research diets 5053. We restrictedly used male mice because of the potential impact of the sexual dimorphism, that is, the oestrus cycle in female mice on cardiometabolic traits, resulting in unwanted variability and to ensure comparability to existing research predominantly using male mice[71]. The mice were subjected to an IPGTT. […] Data collection and analysis were not randomized or blind to the conditions of the experiments. The statistical analysis was performed in GraphPad Prism.

WT male mice = assay: IPGTT in WT male mice; assay type: in vivo, mouse; design: Mean difference in glucose (WT + Veh. vs. WT + GLP-1): unit not given here; conditions: for Mean difference in glucose (WT + Veh. vs. WT + GLP-1): injected 15 min before glucose, n = 14 veh., 13
From the text: as §1, §2

GIPR = conditions: cited from earlier work
From the text: (§3) Development of similar Gs biased analogues for the GIPR has also been proposed. Although it is not possible to genetically instrument the dual agonistic effects, our results and those of others[33] highlight that decreased recruitment of β-arrestins might benefit the GLP-1R system[36],[37] but not for the GIPR regarding its role in glycaemic control. Ye ...

GLP-1R = target: T1, GLP-1R (Homo sapiens, UniProt P43220); conditions: cited from earlier work
T1 construct: expressed in transfected cells; host or cells: parental HEK293A cells and β-arrestin 1/2 KO HEK293A cells
From the text: as §3

GIPR S64P = target: T2, GIPR S64P (Homo sapiens, UniProt P48546, S64P); assay: cAMP accumulation; assay type: cell-based
T2 construct: host or cells: HEK293
T2 sequence (P48546 22-466 S64P): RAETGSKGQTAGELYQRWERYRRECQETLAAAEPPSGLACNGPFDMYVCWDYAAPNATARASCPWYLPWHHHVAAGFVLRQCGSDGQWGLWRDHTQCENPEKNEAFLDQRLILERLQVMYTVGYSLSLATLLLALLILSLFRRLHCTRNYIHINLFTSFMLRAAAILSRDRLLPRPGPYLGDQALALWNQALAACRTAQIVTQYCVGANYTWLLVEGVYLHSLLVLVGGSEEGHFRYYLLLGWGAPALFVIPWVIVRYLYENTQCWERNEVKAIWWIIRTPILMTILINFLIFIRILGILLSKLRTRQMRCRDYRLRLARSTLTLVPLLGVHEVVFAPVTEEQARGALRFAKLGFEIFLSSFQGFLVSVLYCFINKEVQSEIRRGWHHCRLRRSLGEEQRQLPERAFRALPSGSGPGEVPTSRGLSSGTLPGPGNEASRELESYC
Protocol: HEK293 (CRL-1573, American Type Culture Collection) and β-arrestin 1/2 knockout cells, generated from HEK293A[48], were used for cAMP measurement, homologues competition binding and β-arrestin 2 recruitment. […] Both cell lines were cultured at 5% CO2 at 37 °C in Roswell Park Memorial Institute GlutaMAX-I supplemented with 10% fetal bovine serum, 180 units ml^−1 penicillin, and 45 g ml^−1 streptomycin. For the cAMP and binding experiments, cells were transfected with the calcium phosphate precipitation method[49].
cAMP production was measured with the DiscoverX Hithunter cAMP assay according to the manufacturer’s protocol (DiscoverX). […] On the day of the assay, the cells were washed twice with HEPES-buffered saline (HBS) and incubated with HBS and 1 mM 3-isobutyl-1-methylxanthine for 30 min at 37 °C. […] After the incubation, the assay medium was removed from the plate and the cells were washed with 30 µl PBS and treated with 40 µl enzyme donor–lysis buffer–chemiluminescent reagents and 10 µl cAMP antibodies for 60 min before 40 µl enzyme acceptor solution added. After a 3-h incubation on a shaking table in the dark, the cAMP accumulation was measured based on luminescence with a Perkin Elmer EnVision 2104 Multilabel Microplate Reader. […]

[9] = M67R, Y73H, V99I, T116R, A150T, A185V, P195R and A207V
[10] = R12Q, L13F, R38L, A294V, I299V, E354Q, S415I, E418K, G449A and E463Q
[11] = T25R, R43G, R164Q, H166Y, I221M and K397N

T1 sequence (P43220 24-463, species assumed): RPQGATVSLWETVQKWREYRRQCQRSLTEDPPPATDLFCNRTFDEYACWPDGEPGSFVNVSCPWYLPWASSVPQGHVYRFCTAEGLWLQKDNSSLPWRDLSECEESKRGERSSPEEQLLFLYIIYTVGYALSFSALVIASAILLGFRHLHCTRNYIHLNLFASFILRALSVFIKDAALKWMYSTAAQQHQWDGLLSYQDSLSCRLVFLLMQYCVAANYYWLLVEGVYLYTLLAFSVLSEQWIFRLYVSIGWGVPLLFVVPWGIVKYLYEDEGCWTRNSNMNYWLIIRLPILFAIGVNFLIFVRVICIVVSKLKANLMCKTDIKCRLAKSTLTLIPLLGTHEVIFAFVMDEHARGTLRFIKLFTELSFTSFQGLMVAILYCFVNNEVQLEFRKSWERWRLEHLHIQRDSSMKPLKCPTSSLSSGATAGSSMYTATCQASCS

## glucose-dependent insulinotropic polypeptide [GIP]
SNAP-GIPR T116R; GIP 1 nM–1 µM, 37 °C, n = 4
  Emax (Dose-response), internalization: 93 % of maximal SNAP-WT GIPR inte
SNAP-GIPR T116R; Hill slope 1.0, n = 4
  LogEC50 (Dose-response), internalization: -7.6
GIPR variants (groups) [1]; 21 of the 29 variants with impaired cAMP production (LoFcAMP/LoFarr)
  β-arrestin recruitment: impaired β-arrestin recruitment
GIPR variants (groups) [1]; [9]
  β-arrestin recruitment class: WT-like
GIPR variants (groups) [1]; [10]
  β-arrestin recruitment class: WT-like
GIPR variants (groups) [1]; R190Q and E288G
  β-arrestin recruitment: impaired cAMP signalling and β-arrestin recruitment
GIPR variants (groups) [1]; [11]
  β-arrestin recruitment class: low β-arrestin recruitment
GIPR variants (groups) [1]; most of 47 variants, apart from a few lacking recruitment
  β-arrestin 2 recruitment potency: no major differences in potency
WT GIPR
  β-arrestin isoform recruitment: predominantly recruits β-arrestin 2 over β-arrestin 1
SNAP-WT GIPR; GIP 1 nM–1 µM, 37 °C, n = 4
  Emax (Dose-response), internalization: 100 % of maximal SNAP-WT GIPR inte
SNAP-WT GIPR; Hill slope 1.0, n = 4
  LogEC50 (Dose-response), internalization: -7.5
GIPR variants (groups) [2]; M67R, V99I and P195R
  Level of internalization: slightly diminished internalization
GIPR variants (groups) [2]; R190Q and E288G (LoFcAMP/LoFarr)
  Internalization: did not internalize
GIPR variants (groups) [2]; Y73H, T116R, A150T, A185V and A207V
  Level of internalization: nearly identical levels of internalization as the WT GIPR
GIPR variants (groups) [2]; all eight LoFcAMP/WT-likearr variants
  Internalization: preserved internalization capabilities
SNAP-GIPR A185V; GIP 1 nM–1 µM, 37 °C, n = 4
  Emax (Dose-response), internalization: 89 % of maximal SNAP-WT GIPR inte
SNAP-GIPR A185V; Hill slope 1.0, n = 4
  LogEC50 (Dose-response), internalization: -7.5
SNAP-GIPR P195R; GIP 1 nM–1 µM, 37 °C, n = 4
  Emax (Dose-response), internalization: 77 % of maximal SNAP-WT GIPR inte
SNAP-GIPR P195R; Hill slope 1.0, n = 4
  LogEC50 (Dose-response), internalization: -7.2
GIPR W90Lfs*17 [3]
  cAMP (Emax): 11 % of WT GIPR activity
GIPR W90Lfs*17 [4]; Hill slope 1.0
  logEC50 (Arrestin): -10.8
GIPR W90Lfs*17 [4]; normalized to WT GIPR
  Arrestin (Emax): 15
GIPR variants (groups) [5]; 29 partial and complete LoF variants, 100 pM GIP
  cAMP signalling activity at 100 pM GIP: < 50 % of WT
GIPR variants (groups) [5]; [9]
  cAMP production class: LoF (defined as <50% activity in either pathway)
GIPR variants (groups) [5]; [10]
  cAMP production class: WT-like
GIPR variants (groups) [5]; R183Q, R190Q and R300W, higher GIP doses
  cAMP production at higher GIP doses: cAMP production was restored
GIPR variants (groups) [5]; R190Q and E288G
  cAMP signalling: impaired cAMP signalling
GIPR variants (groups) [5]; [11]
  cAMP production class: maintained cAMP production
GIPR variants (groups) [5]; T116R, R183Q, R190Q and R300W, 100 pM GIP
  cAMP signalling at 100 pM GIP: no cAMP signalling
SNAP-GIPR V99I; GIP 1 nM–1 µM, 37 °C, n = 4
  Emax (Dose-response), internalization: 92 % of maximal SNAP-WT GIPR inte
SNAP-GIPR V99I; Hill slope 1.0, n = 4
  LogEC50 (Dose-response), internalization: -6.9
SNAP-GIPR Y73H; GIP 1 nM–1 µM, 37 °C, n = 4
  Emax (Dose-response), internalization: 101 % of maximal SNAP-WT GIPR inte
SNAP-GIPR Y73H; Hill slope 1.0, n = 4
  LogEC50 (Dose-response), internalization: -7.4
SNAP-GIPR A207V; GIP 1 nM–1 µM, 37 °C, n = 4
  Emax (Dose-response), internalization: 98 % of maximal SNAP-WT GIPR inte
SNAP-GIPR A207V; Hill slope 1.0, n = 4
  LogEC50 (Dose-response), internalization: -7.6
GIPR variants (groups) [6]; variants that retained β-arrestin recruitment
  Endosomal signalling: effectively recruited mGs to early endosomes
GIPR variants (groups) [6]; variants with diminished β-arrestin recruitment
  Endosomal signalling: minimal to no signalling from early endosomes
GIPR variants (groups) [7]; R190Q and E288G
  GIP binding: maintained GIP binding
GIPR variants (groups) [7]; S64P, C84Pfs*70, R101H, Y258Sfs*50 and Q400Gfs*56
  GIP binding: undetectable GIP binding
GIPR variants (groups) [7]; all 29 LoF variants
  Binding capacity of GIP (Bmax): impaired
SNAP-GIPR A150T; GIP 1 nM–1 µM, 37 °C, n = 4
  Emax (Dose-response), internalization: 98 % of maximal SNAP-WT GIPR inte
SNAP-GIPR A150T; Hill slope 1.0, n = 4
  LogEC50 (Dose-response), internalization: -7.6
SNAP-GIPR M67R; GIP 1 nM–1 µM, 37 °C, n = 4
  Emax (Dose-response), internalization: 98 % of maximal SNAP-WT GIPR inte
SNAP-GIPR M67R; Hill slope 1.0, n = 4
  LogEC50 (Dose-response), internalization: -6.6

## glucagon-like peptide-1 [GLP-1]
[8]
  Acute glycaemic control: reduced acute GLP-1-mediated glycaemic control
Male Arrb2 KO mice; male Arrb2 KO mice, 15 min before IPGTT
  Blood glucose lowering in IPGTT: able to lower blood glucose
Male Arrb2 KO mice; time 0, P = 0.011
  Mean difference in glucose (Arrb2-/- + Veh. vs. Arrb2-/- + GLP-1): 20.9
Male Arrb2 KO mice; time 15 minutes, P = 0.008
  Mean difference in glucose (Arrb2-/- + Veh. vs. Arrb2-/- + GLP-1): 44.9
Male Arrb2 KO mice; time 30 minutes, P = 0.0038
  Mean difference in glucose (Arrb2-/- + Veh. vs. Arrb2-/- + GLP-1): 39.3
Male Arrb2 KO mice; time 60 minutes, P = 0.216
  Mean difference in glucose (Arrb2-/- + Veh. vs. Arrb2-/- + GLP-1): 8.48
Male Arrb2 KO mice; time 120 minutes, P = 0.796
  Mean difference in glucose (Arrb2-/- + Veh. vs. Arrb2-/- + GLP-1): 3.39
Male Arrb2 KO mice; β-arrestin KO mice
  Insulinotropic properties: maintained its insulinotropic properties
WT male mice; WT male mice, 15 min before IPGTT
  Blood glucose lowering in IPGTT: significantly lowered blood glucose levels
WT male mice; time 0, P = 0.031
  Mean difference in glucose (WT + Veh. vs. WT + GLP-1): 19.9
WT male mice; time 15 minutes, P = 0.025
  Mean difference in glucose (WT + Veh. vs. WT + GLP-1): 40.3
WT male mice; time 30 minutes, P = 0.094
  Mean difference in glucose (WT + Veh. vs. WT + GLP-1): 28.3
WT male mice; time 60 minutes, P = 0.535
  Mean difference in glucose (WT + Veh. vs. WT + GLP-1): 8.13
WT male mice; time 120 minutes, P = 0.741
  Mean difference in glucose (WT + Veh. vs. WT + GLP-1): -1.82

## tirzepatide: GIPR–GLP-1R co-agonist
GIPR
  GIPR activation: activation of GIPR as native GIP
GLP-1R
  cAMP pathway activation at the GLP-1R: full activation of the cAMP pathway
  β-arrestin recruitment to the GLP-1R: less recruitment of β-arrestin

B1: S64P (protein)
chain: T2 sequence (P48546 22-466 S64P)
GIPR variants (groups) [1]; arr part of the in vitro group
  In vitro groups (β-arrestin): LoF_arr
GIPR variants (groups) [1]; in vitro β-arrestin recruitment per GIPR variant
  Beta, Barr: 0
GIPR S64P
  Efficacy at 100pmol (cAMP): 0
GIPR variants (groups) [5]; cAMP part of the in vitro group
  In vitro groups (cAMP): LoF_camp
GIPR variants (groups) [5]; cAMP production compared with WT
  percentage_camp: <50% cAMP
GIPR variants (groups) [5]; in vitro cAMP production per GIPR variant
  Beta, cAMP: 0

Reference: article PMC11272584 (Nature Metabolism, 2024)
